Legend:
Experiment in all cases: relative viability (nuclei count vs DMSO), 5 days (fraction); higher = more cells survive
[1] = tested on: BEN
Outline: (§1)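 Nuclei were stained with Hoechst during a one-step fixation (final 0.05% Triton X-100, 1% formaldehyde, 1 ug/ml Hoechst) carried out 5 days after dosing, then counted on 4× images. The cells, lung cancer lines in 1536-well plates, had been dosed by pin tool the day after seeding with one drug alone or a fixed anchor-drug dose plus five library-drug doses (not always all listed) in √10 steps. Relative viability is the nuclei count in treated wells divided by that in vehicle wells, and each value is the median of duplicate plates.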

[2] = tested on: COR-L23
Outline: as §1

[3] = tested on: LK-2
Outline: as §1

[4] = tested on: NCI-H2087
Outline: as §1

[5] = tested on: NCI-H1650
Outline: as §1

[6] = tested on: NCI-H2126
Outline: as §1

[7] = tested on: NCI-H2347
Outline: as §1

[8] = tested on: LCLC-103H
Outline: as §1

[9] = tested on: SW 900
Outline: as §1

[10] = tested on: NCI-H460
Outline: as §1

[11] = tested on: LXF-289
Outline: as §1

[12] = tested on: NCI-H441
Outline: as §1

[13] = tested on: NCI-H1651
Outline: as §1

[14] = tested on: EKVX
Outline: as §1

[15] = tested on: EMC-BAC-2
Outline: as §1

[16] = tested on: NCI-H596
Outline: as §1

[17] = tested on: 201T
Outline: as §1

[18] = tested on: NCI-H1793
Outline: as §1

[19] = tested on: HCC-827
Outline: as §1

[20] = tested on: NCI-H1915
Outline: as §1

[21] = tested on: EPLC-272H
Outline: as §1

[22] = tested on: NCI-H358
Outline: as §1

[23] = tested on: SW 1573
Outline: as §1

[24] = tested on: A-427
Outline: as §1

Compound: CCCCCCCCCCCC1=C(O)C(=O)C=C(O)C1=O [Embelin] + COc1cc2c(Oc3ccc(NC(=O)C4(C(=O)Nc5ccc(F)cc5)CC4)cc3F)ccnc2cc1OCCCN1CCOCC1 [Foretinib] (partner 0.25 µM)
- relative viability ([1]; first compound 0.08 µM): 0.681
- relative viability ([1]; first compound 0.8 µM): 0.954
- relative viability ([1]; first compound 2.53 µM): 0.677
- relative viability ([1]; first compound 8 µM): 0.867
- relative viability ([2]; first compound 0.08 µM): 1
- relative viability ([2]; first compound 0.8 µM): 1.13
- relative viability ([2]; first compound 2.53 µM): 1.01
- relative viability ([2]; first compound 8 µM): 1.14
- relative viability ([3]; first compound 0.08 µM): 1.13
- relative viability ([3]; first compound 0.8 µM): 1.7
- relative viability ([3]; first compound 2.53 µM): 1.47
- relative viability ([3]; first compound 8 µM): 1.79
- relative viability ([4]; first compound 0.08 µM): 1.07
- relative viability ([4]; first compound 0.8 µM): 1.27
- relative viability ([4]; first compound 2.53 µM): 1.03
- relative viability ([4]; first compound 8 µM): 1.19
- relative viability ([5]; first compound 0.08 µM): 1.09
- relative viability ([5]; first compound 0.8 µM): 1.05
- relative viability ([5]; first compound 2.53 µM): 1.11
- relative viability ([5]; first compound 8 µM): 0.968
- relative viability ([6]; first compound 0.08 µM): 1.12
- relative viability ([6]; first compound 0.8 µM): 1.21
- relative viability ([6]; first compound 2.53 µM): 1.23
- relative viability ([6]; first compound 8 µM): 1.2
- relative viability ([7]; first compound 0.08 µM): 0.981
- relative viability ([7]; first compound 0.8 µM): 0.837
- relative viability ([7]; first compound 2.53 µM): 1.21
- relative viability ([7]; first compound 8 µM): 0.942
- relative viability ([8]; first compound 0.08 µM): 0.736
- relative viability ([8]; first compound 0.8 µM): 0.842
- relative viability ([8]; first compound 2.53 µM): 0.912
- relative viability ([8]; first compound 8 µM): 0.755
- relative viability ([9]; first compound 0.08 µM): 0.89
- relative viability ([9]; first compound 0.8 µM): 0.915
- relative viability ([9]; first compound 2.53 µM): 1.02
- relative viability ([9]; first compound 8 µM): 0.876
- relative viability ([10]; first compound 0.08 µM): 0.996
- relative viability ([10]; first compound 0.8 µM): 1.03
- relative viability ([10]; first compound 2.53 µM): 1.11
- relative viability ([10]; first compound 8 µM): 1.08
- relative viability ([11]; first compound 0.08 µM): 0.999
- relative viability ([11]; first compound 0.8 µM): 1
- relative viability ([11]; first compound 2.53 µM): 1.06
- relative viability ([11]; first compound 8 µM): 0.998
- relative viability ([12]; first compound 0.08 µM): 1.05
- relative viability ([12]; first compound 0.8 µM): 1.09
- relative viability ([12]; first compound 2.53 µM): 1.22
- relative viability ([12]; first compound 8 µM): 1.09
- relative viability ([13]; first compound 0.08 µM): 0.848
- relative viability ([13]; first compound 0.8 µM): 0.865
- relative viability ([13]; first compound 2.53 µM): 0.924
- relative viability ([13]; first compound 8 µM): 0.769
- relative viability ([14]; first compound 0.08 µM): 0.789
- relative viability ([14]; first compound 0.8 µM): 0.926
- relative viability ([14]; first compound 2.53 µM): 0.625
- relative viability ([14]; first compound 8 µM): 0.875
- relative viability ([15]; first compound 0.08 µM): 1.05
- relative viability ([15]; first compound 0.8 µM): 1.09
- relative viability ([15]; first compound 2.53 µM): 0.973
- relative viability ([15]; first compound 8 µM): 1.07
- relative viability ([16]; first compound 0.08 µM): 0.834
- relative viability ([16]; first compound 0.8 µM): 0.835
- relative viability ([16]; first compound 2.53 µM): 1.02
- relative viability ([16]; first compound 8 µM): 0.764
- relative viability ([17]; first compound 0.08 µM): 1.14
- relative viability ([17]; first compound 0.8 µM): 1.15
- relative viability ([17]; first compound 2.53 µM): 1.18
- relative viability ([17]; first compound 8 µM): 0.961
- relative viability ([18]; first compound 0.08 µM): 0.712
- relative viability ([18]; first compound 0.8 µM): 0.76
- relative viability ([18]; first compound 2.53 µM): 0.916
- relative viability ([18]; first compound 8 µM): 0.765
- relative viability ([19]; first compound 0.08 µM): 0.993
- relative viability ([19]; first compound 0.8 µM): 1.11
- relative viability ([19]; first compound 2.53 µM): 1.03
- relative viability ([19]; first compound 8 µM): 1.16
- relative viability ([20]; first compound 0.08 µM): 1.14
- relative viability ([20]; first compound 0.8 µM): 1.1
- relative viability ([20]; first compound 2.53 µM): 1.13
- relative viability ([20]; first compound 8 µM): 1.13
- relative viability ([21]; first compound 0.08 µM): 0.736
- relative viability ([21]; first compound 0.8 µM): 0.866
- relative viability ([21]; first compound 2.53 µM): 0.916
- relative viability ([21]; first compound 8 µM): 0.65
- relative viability ([22]; first compound 0.08 µM): 0.753
- relative viability ([22]; first compound 0.8 µM): 0.81
- relative viability ([22]; first compound 2.53 µM): 0.976
- relative viability ([22]; first compound 8 µM): 0.869
- relative viability ([23]; first compound 0.08 µM): 0.974
- relative viability ([23]; first compound 0.8 µM): 0.998
- relative viability ([23]; first compound 2.53 µM): 1.08
- relative viability ([23]; first compound 8 µM): 0.948
- relative viability ([24]; first compound 0.08 µM): 1.15
- relative viability ([24]; first compound 0.8 µM): 1.14
- relative viability ([24]; first compound 2.53 µM): 1.12
- relative viability ([24]; first compound 8 µM): 1.2
